PubChem BioAssay (NCI)
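Briefly, cells in 96-well plates were exposed to five compound concentrations for 48 h, and endpoints were estimated by linear interpolation. At the GI50, growth is halved. At the TGI there is no net growth.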

Legend:
Assay in all cases: growth of human tumour cells (NCI), 48 h
[1] = system: 786-0 renal
[2] = system: A498 renal
[3] = system: A549 NSCLC
[4] = system: ACHN renal
[5] = system: BT-549 breast
[6] = system: CAKI-1 renal
[7] = system: CCRF-CEM leukemia
[8] = system: COLO 205 colon
[9] = system: DU-145 prostate
[10] = system: EKVX NSCLC
[11] = system: HCC-2998 colon
[12] = system: HCT-116 colon
[13] = system: HCT-15 colon
[14] = system: HL-60(TB) leukemia
[15] = system: HOP-62 NSCLC
[16] = system: HOP-92 NSCLC
[17] = system: HS 578T breast
[18] = system: HT29 colon
[19] = system: IGROV1 ovarian
[20] = system: K-562 leukemia
[21] = system: KM12 colon
[22] = system: LOX IMVI melanoma
[23] = system: M14 melanoma
[24] = system: MALME-3M melanoma
[25] = system: MCF7 breast
[26] = system: MDA-MB-231 breast
[27] = system: MDA-MB-435
[28] = system: MOLT-4 leukemia
[29] = system: NCI-H226 lung
[30] = system: NCI-H23 lung
[31] = system: NCI-H460 lung
[32] = system: NCI-H522 lung
[33] = system: NCI/ADR-RES ovarian
[34] = system: OVCAR-3 ovarian
[35] = system: OVCAR-4 ovarian
[36] = system: OVCAR-5 ovarian
[37] = system: OVCAR-8 ovarian
[38] = system: PC-3 prostate
[39] = system: RPMI-8226 leukemia
[40] = system: RXF 393 renal
[41] = system: SF-268 CNS
[42] = system: SF-295 CNS
[43] = system: SF-539 CNS
[44] = system: SK-MEL-2 melanoma
[45] = system: SK-MEL-28 melanoma
[46] = system: SK-MEL-5 melanoma
[47] = system: SK-OV-3 ovarian
[48] = system: SN12C renal
[49] = system: SNB-19 CNS
[50] = system: SNB-75 CNS
[51] = system: SR leukemia
[52] = system: SW-620 colon
[53] = system: T-47D breast
[54] = system: TK-10 renal
[55] = system: U251 CNS
[56] = system: UACC-257 melanoma
[57] = system: UACC-62 melanoma
[58] = system: UO-31 renal

Compound: O=S(=O)(NCCNc1cc(-c2cn(-c3ccccc3)nc2-c2cccc(O)c2)ccn1)c1ccc(Br)cc1
- GI50 [1]: 2.17 µM
- TGI [1]: 7.78 µM
- GI50 [2]: 1.45 µM
- TGI [2]: 5.47 µM
- GI50 [3]: 3.6 µM
- TGI [3]: 15 µM
- GI50 [4]: 3.33 µM
- TGI [4]: 15.2 µM
- GI50 [5]: 2.52 µM
- TGI [5]: 6.87 µM
- GI50 [6]: 3.42 µM
- TGI [6]: 20.4 µM
- GI50 [7]: 2.1 µM
- TGI [7]: 6.06 µM
- GI50 [8]: 1.86 µM
- TGI [8]: 3.81 µM
- GI50 [9]: 3.02 µM
- TGI [9]: 11.6 µM
- GI50 [10]: 2.76 µM
- TGI [10]: 19.1 µM
- GI50 [11]: 2.14 µM
- TGI [11]: 4.1 µM
- GI50 [12]: 2.44 µM
- TGI [12]: 6.48 µM
- GI50 [13]: 1.8 µM
- TGI [13]: 4.39 µM
- GI50 [14]: 2.19 µM
- TGI [14]: 5.76 µM
- GI50 [15]: 2.35 µM
- TGI [15]: 5.99 µM
- GI50 [16]: 2 µM
- TGI [16]: 5.06 µM
- GI50 [17]: 2.35 µM
- TGI [17]: 7.71 µM
- GI50 [18]: 2.17 µM
- TGI [18]: 5.04 µM
- GI50 [19]: 3.33 µM
- TGI [19]: 15.5 µM
- GI50 [20]: 1.98 µM
- TGI [20]: 5.49 µM
- GI50 [21]: 2.59 µM
- TGI [21]: 7.95 µM
- GI50 [22]: 1.71 µM
- TGI [22]: 3.23 µM
- GI50 [23]: 2.02 µM
- TGI [23]: 5.04 µM
- GI50 [24]: 2.08 µM
- TGI [24]: 5.08 µM
- GI50 [25]: 2.33 µM
- TGI [25]: 6.91 µM
- GI50 [26]: 1.9 µM
- TGI [26]: 4.59 µM
- GI50 [27]: 1.79 µM
- TGI [27]: 3.65 µM
- GI50 [28]: 2.21 µM
- TGI [28]: 5.98 µM
- GI50 [29]: 3.15 µM
- TGI [29]: 15 µM
- GI50 [30]: 2.7 µM
- TGI [30]: 11.4 µM
- GI50 [31]: 2.39 µM
- TGI [31]: 5.76 µM
- GI50 [32]: 2.02 µM
- TGI [32]: 4.69 µM
- GI50 [33]: 3.14 µM
- TGI [33]: 12.5 µM
- GI50 [34]: 2.01 µM
- TGI [34]: 4.09 µM
- GI50 [35]: 2.32 µM
- TGI [35]: 13.7 µM
- GI50 [36]: 2.25 µM
- TGI [36]: 5.97 µM
- GI50 [37]: 3.47 µM
- TGI [37]: 12.6 µM
- GI50 [38]: 2.07 µM
- TGI [38]: 6.41 µM
- GI50 [39]: 2.21 µM
- TGI [39]: 5.73 µM
- GI50 [40]: 2.38 µM
- TGI [40]: 6.96 µM
- GI50 [41]: 2.25 µM
- TGI [41]: 7.06 µM
- GI50 [42]: 1.88 µM
- TGI [42]: 3.94 µM
- GI50 [43]: 1.81 µM
- TGI [43]: 4.24 µM
- GI50 [44]: 2.3 µM
- TGI [44]: 4.79 µM
- GI50 [45]: 2.09 µM
- TGI [45]: 4.78 µM
- GI50 [46]: 1.64 µM
- TGI [46]: 3.03 µM
- GI50 [47]: 3.59 µM
- TGI [47]: 14.5 µM
- GI50 [48]: 2.14 µM
- TGI [48]: 4.78 µM
- GI50 [49]: 2.89 µM
- TGI [49]: 11.1 µM
- GI50 [50]: 2.03 µM
- TGI [50]: 6.94 µM
- GI50 [51]: 1.97 µM
- TGI [51]: 5.58 µM
- GI50 [52]: 3.04 µM
- TGI [52]: 9.68 µM
- GI50 [53]: 2.22 µM
- TGI [53]: 7.71 µM
- GI50 [54]: 2.78 µM
- TGI [54]: 9.65 µM
- GI50 [55]: 2.21 µM
- TGI [55]: 5.64 µM
- GI50 [56]: 2.8 µM
- TGI [56]: 7.07 µM
- GI50 [57]: 1.81 µM
- TGI [57]: 3.87 µM
- GI50 [58]: 2.19 µM
- TGI [58]: 6.96 µM

Compound: Cc1cc(C)c(O)c(CNCCCNCc2cc(C)cc(C)c2O)c1
- GI50 [1]: 4.69 µM
- TGI [1]: 18.7 µM
- GI50 [2]: 1.71 µM
- TGI [2]: 9.24 µM
- GI50 [3]: 11 µM
- TGI [3]: 24.6 µM
- GI50 [4]: 3.55 µM
- TGI [4]: 10.8 µM
- GI50 [5]: 10.9 µM
- TGI [5]: 24.5 µM
- GI50 [6]: 5.45 µM
- TGI [6]: 18.7 µM
- GI50 [7]: 3.82 µM
- TGI [7]: 15.3 µM
- GI50 [8]: 1.89 µM
- TGI [8]: 3.89 µM
- GI50 [9]: 5.19 µM
- TGI [9]: 17.7 µM
- GI50 [10]: 5.04 µM
- TGI [10]: 20.2 µM
- GI50 [11]: 1.45 µM
- TGI [11]: 2.82 µM
- GI50 [12]: 2.99 µM
- TGI [12]: 9.49 µM
- GI50 [13]: 2.01 µM
- TGI [13]: 4.66 µM
- GI50 [14]: 2.33 µM
- TGI [14]: 4.75 µM
- GI50 [15]: 6.68 µM
- TGI [15]: 21.8 µM
- GI50 [16]: 1.94 µM
- TGI [16]: 7.23 µM
- GI50 [17]: 2.05 µM
- TGI [17]: 5.03 µM
- GI50 [18]: 3.02 µM
- TGI [18]: 10.7 µM
- GI50 [19]: 4.52 µM
- TGI [19]: 18.5 µM
- GI50 [20]: 2.11 µM
- TGI [20]: 4.89 µM
- GI50 [21]: 2.58 µM
- TGI [21]: 7.24 µM
- GI50 [22]: 1.52 µM
- TGI [22]: 2.88 µM
- GI50 [23]: 1.8 µM
- TGI [23]: 3.55 µM
- GI50 [24]: 1.73 µM
- TGI [24]: 3.29 µM
- GI50 [25]: 1.67 µM
- TGI [25]: 3.36 µM
- GI50 [26]: 1.93 µM
- TGI [26]: 4.45 µM
- GI50 [27]: 1.54 µM
- TGI [27]: 2.93 µM
- GI50 [28]: 3.14 µM
- TGI [28]: 10.2 µM
- GI50 [29]: 6.46 µM
- TGI [29]: 21.9 µM
- GI50 [30]: 7.46 µM
- TGI [30]: 21.2 µM
- GI50 [31]: 2.13 µM
- TGI [31]: 4.65 µM
- GI50 [32]: 3.41 µM
- TGI [32]: 14.1 µM
- GI50 [33]: 2.17 µM
- TGI [33]: 5.75 µM
- GI50 [34]: 3.82 µM
- TGI [34]: 15 µM
- GI50 [35]: 3.7 µM
- TGI [35]: 16.1 µM
- GI50 [36]: 4.23 µM
- TGI [36]: 19.5 µM
- GI50 [37]: 5.09 µM
- TGI [37]: 20.3 µM
- GI50 [38]: 6.69 µM
- TGI [38]: 19.8 µM
- GI50 [39]: 3.03 µM
- TGI [39]: 8.72 µM
- GI50 [40]: 1.93 µM
- TGI [40]: 4.24 µM
- GI50 [41]: 5.97 µM
- TGI [41]: 21.2 µM
- GI50 [42]: 1.87 µM
- TGI [42]: 3.81 µM
- GI50 [43]: 1.59 µM
- TGI [43]: 3.11 µM
- GI50 [44]: 2.15 µM
- TGI [44]: 4.5 µM
- GI50 [45]: 1.65 µM
- TGI [45]: 3.19 µM
- GI50 [46]: 1.57 µM
- TGI [46]: 2.93 µM
- GI50 [47]: 3.62 µM
- TGI [47]: 13.6 µM
- GI50 [48]: 5.23 µM
- TGI [48]: 18.8 µM
- GI50 [49]: 3.88 µM
- TGI [49]: 15.1 µM
- GI50 [50]: 1.39 µM
- TGI [50]: 2.78 µM
- GI50 [51]: 2.06 µM
- TGI [51]: 6 µM
- GI50 [52]: 3.19 µM
- TGI [52]: 11 µM
- GI50 [53]: 1.73 µM
- TGI [53]: 4.29 µM
- GI50 [54]: 6.16 µM
- TGI [54]: 20.6 µM
- GI50 [55]: 1.95 µM
- TGI [55]: 3.89 µM
- GI50 [56]: 2.14 µM
- TGI [56]: 4.08 µM
- GI50 [57]: 1.89 µM
- TGI [57]: 3.43 µM
- GI50 [58]: 2.22 µM
- TGI [58]: 12.1 µM
